The source made the active and inactive calls. No cut-off for these calls is given here.
Columns and labels:
Mus musculus [1] = assay: Anticonvulsant activity in F-1 albino mouse assessed as protection against 32 mA current-induced seizure at 30 mg/kg, ip pretreated at 0.5 hrs before current challenge by 6 Hz psychomotor seizure test; assay type: functional, organism-based
Mus musculus [2] = assay: Anticonvulsant activity in F-1 albino mouse assessed as protection against 32 mA current-induced seizure at 30 mg/kg, ip pretreated at 2 hrs before current challenge by 6 Hz psychomotor seizure test; assay type: functional, organism-based
Mus musculus [3] = assay: Anticonvulsant activity in F-1 albino mouse assessed as protection against 32 mA current-induced seizure at 100 mg/kg, ip pretreated at 2 hrs before current challenge by 6 Hz psychomotor seizure test; assay type: functional, organism-based
Mus musculus [4] = assay: Anticonvulsant activity in F-1 albino mouse assessed as protection against 32 mA current-induced seizure at 30 mg/kg, ip pretreated at 0.5 hrs by maximal electroshock seizure test; assay type: functional, organism-based
Mus musculus [5] = assay: Anticonvulsant activity in F-1 albino mouse assessed as protection against 32 mA current-induced seizure at 100 mg/kg, ip pretreated at 0.5 hrs by maximal electroshock seizure test; assay type: functional, organism-based
Mus musculus [6] = assay: Anticonvulsant activity in F-1 albino mouse assessed as protection against 32 mA current-induced seizure at 30 mg/kg, ip pretreated at 2 hrs by maximal electroshock seizure test; assay type: functional, organism-based
Mus musculus [7] = assay: Anticonvulsant activity in F-1 albino mouse assessed as protection against 32 mA current-induced seizure at 100 mg/kg, ip pretreated at 2 hrs by maximal electroshock seizure test; assay type: functional, organism-based
Mus musculus [8] = assay: Anticonvulsant activity in F-1 albino mouse assessed as protection against 32 mA current-induced seizure at 300 mg/kg, ip pretreated at 2 hrs by maximal electroshock seizure test; assay type: functional, organism-based
[9] = Neurotoxicity in F-1 albino mouse at 30 mg/kg, ip after 0.5 hrs by rotarod test; assay type: toxicity, organism-based; settings: in vivo
[10] = Neurotoxicity in F-1 albino mouse at 100 mg/kg, ip after 0.5 hrs by rotarod test; assay type: toxicity, organism-based; settings: in vivo
[11] = Neurotoxicity in F-1 albino mouse at 300 mg/kg, ip after 0.5 hrs by rotarod test; assay type: toxicity, organism-based; settings: in vivo
[12] = Neurotoxicity in F-1 albino mouse at 30 mg/kg, ip after 2 hrs by rotarod test; assay type: toxicity, organism-based; settings: in vivo
[13] = Neurotoxicity in F-1 albino mouse at 100 mg/kg, ip after 2 hrs by rotarod test; assay type: toxicity, organism-based; settings: in vivo
[14] = Neurotoxicity in F-1 albino mouse at 300 mg/kg, ip after 2 hrs by rotarod test; assay type: toxicity, organism-based; settings: in vivo
Mus musculus [15] = assay: Anticonvulsant activity in F-1 albino mouse assessed as protection against 32 mA current-induced seizure at 300 mg/kg, ip pretreated at 0.5 hrs by maximal electroshock seizure test; assay type: functional, organism-based
Mus musculus [16] = assay: Anticonvulsant activity in F-1 albino mouse assessed as protection against 32 mA current-induced seizure at 300 mg/kg, ip pretreated at 0.5 hrs before current challenge by 6 Hz psychomotor seizure test; assay type: functional, organism-based
Mus musculus [17] = assay: Anticonvulsant activity in F-1 albino mouse assessed as protection against 32 mA current-induced seizure at 300 mg/kg, ip pretreated at 2 hrs before current challenge by 6 Hz psychomotor seizure test; assay type: functional, organism-based
Mus musculus [18] = assay: Anticonvulsant activity in ip dosed F-1 albino mouse assessed as protection against 32 mA current-induced seizure pretreated at 0.5 to 2 hrs by maximal electroshock seizure test; assay type: functional; settings: F-1, ip
Mus musculus [19] = assay: Anticonvulsant activity in F-1 albino mouse assessed as protection against 32 mA current-induced seizure at 100 mg/kg, ip pretreated at 0.5 hrs before current challenge by 6 Hz psychomotor seizure test; assay type: functional, organism-based

Row | Compound | Activity (Mus musculus [1]) | Activity (Mus musculus [2]) | Activity (Mus musculus [3]) | Activity (Mus musculus [4]) | Activity (Mus musculus [5]) | Activity (Mus musculus [6]) | Activity (Mus musculus [7]) | Activity (Mus musculus [8]) | Activity [9] | Activity [10] | Activity [11] | Activity [12] | Activity [13] | Activity [14] | Activity (Mus musculus [15]) | Activity (Mus musculus [16]) | Activity (Mus musculus [17]) | ED50 (Mus musculus [18]) | Activity (Mus musculus [19])
1 | O=C1C=C(Nc2ccc(Br)cc2C(=O)O)CC(C(F)(F)F)C1 (configuration not stated) | inactive | inactive | inactive | inactive | inactive | inactive | inactive | inactive | Non-Toxic | Non-Toxic | Non-Toxic | Non-Toxic | Non-Toxic | Non-Toxic | – | – | – | – | –
2 | COc1ccc(CNC2=CC(=O)CC(C(F)(F)F)C2)cc1 (configuration not stated) | inactive | inactive | – | inactive | inactive | inactive | inactive | inactive | Non-Toxic | Non-Toxic | Non-Toxic | Non-Toxic | Non-Toxic | Non-Toxic | inactive | – | – | – | –
3 | O=C1C=C(NCc2cc(C(F)(F)F)cc(C(F)(F)F)c2)CC(C(F)(F)F)C1 (configuration not stated) | – | – | inactive | inactive | inactive | inactive | inactive | inactive | Non-Toxic | Non-Toxic | Non-Toxic | Non-Toxic | Non-Toxic | Non-Toxic | inactive | – | – | – | –
4 | O=C1C=C(NCc2cccc(C(F)(F)F)c2)CC(C(F)(F)F)C1 (configuration not stated) | inactive | inactive | – | inactive | inactive | inactive | inactive | inactive | Non-Toxic | Non-Toxic | Non-Toxic | Non-Toxic | Non-Toxic | Non-Toxic | – | – | – | – | –
5 | O=C1C=C(NCc2cc(F)ccc2F)CC(C(F)(F)F)C1 (configuration not stated) | inactive | inactive | inactive | inactive | inactive | inactive | inactive | inactive | Non-Toxic | Non-Toxic | Non-Toxic | Non-Toxic | Non-Toxic | Non-Toxic | inactive | Active | Active | – | –
6 | O=C1C=C(NCc2ccc(Br)cc2)CC(C(F)(F)F)C1 (configuration not stated) | – | inactive | inactive | inactive | inactive | inactive | inactive | inactive | Non-Toxic | Non-Toxic | Non-Toxic | Non-Toxic | Non-Toxic | Non-Toxic | – | – | – | – | –
7 | O=C1C=C(NCc2ccc(F)c(C(F)(F)F)c2)CC(C(F)(F)F)C1 (configuration not stated) | – | – | – | inactive | inactive | inactive | inactive | inactive | Non-Toxic | Non-Toxic | Non-Toxic | Non-Toxic | Non-Toxic | Non-Toxic | inactive | Active | Active | 23.5 mg/kg | –
8 | NC(=O)N1c2ccccc2C=Cc2ccccc21 [CARBAMAZEPINE] | – | – | – | – | – | – | – | – | – | – | – | – | – | – | – | – | – | 28.2 mg/kg | –
9 | O=C1C=C(NCc2cccc(OC(F)(F)F)c2)CC(C(F)(F)F)C1 (configuration not stated) | – | inactive | inactive | – | inactive | inactive | inactive | Active | Non-Toxic | Non-Toxic | Non-Toxic | Non-Toxic | Non-Toxic | Non-Toxic | Active | – | – | – | inactive
10 | O=C1C=C(Nc2ccc(Cl)cc2)CC(C(F)(F)F)C1 (configuration not stated) | – | – | – | – | – | – | – | – | Non-Toxic | – | – | Non-Toxic | – | – | – | – | – | 62.4 mg/kg | –
